For 48 compounds, melting point results are on record in a melting point compilation (Tetko et al.).

Usually melting point stands for the temperature, or range, at which the solid turns liquid.

Molecules are shown by their SMILES.

`Cc1c(Br)cc(C(=O)O)cc1S(=O)(=O)Cl` gave a melting point of 183 to 185 °C. `CCOC(=O)c1c[nH]cc1C(F)(F)F`: the melting point is 161 to 163 °C. `Cc1nccn1-c1ccc(N)cc1F` showed a melting point of 84 to 86 °C. For the compound `COc1ccccc1-c1nnc(SCC(=O)O)n1N`, the melting point lay in the range of 181 to 183 °C. Turning to `CC(=O)NCCNC(=O)CCC(=O)O`, the melting point is 166 to 168 °C. As to `O=C(O)c1cc(Cl)cc(S(=O)(=O)Cl)c1F`, the melting point fell in the range of 162 to 164 °C. `COc1cc(C=O)cc(OC)c1OC(F)F`: the melting point was in the range of 115 to 117 °C. As to `O=C(Nc1ncccn1)C1CCNCC1`, the melting point was 146 to 148 °C. As to `Cc1cc(N)n(-c2cccc(Br)c2)n1`, the melting point was in the range of 145 to 147 °C. As for `CC(C)(C)C(=O)NCC(=O)O`, the figure is 132 to 134 °C. `CC(C)(C)OC(=O)N1CCN(c2ccc(CN)cc2F)CC1` had a melting point of 69 to 71 °C.

The compound `O=C(CBr)c1ccc(S(=O)(=O)N2CCCC2)cc1` returned a melting point of 121 to 123 °C.

Compound `CC(=O)N(C)c1ccc(S(N)(=O)=O)cc1` showed a melting point of 153 to 155 °C.

`N#CCc1c[nH]c2cc(Cl)ccc12` showed a melting point of 99 to 101 °C. `Cc1ccc2[nH]c(C(=O)O)cc2c1` registered a melting point of 218 to 220 °C. In the case of `Cc1ncc(C(=O)O)s1`, the melting point lay in the range of 209 to 211 °C.

Regarding `Cc1cc(-c2nnn[nH]2)ccc1F`, the melting point lay in the range of 109 to 111 °C.

For `CC(C)n1nnc(C(=O)O)c1C(F)(F)F`, the melting point was in the range of 99 to 101 °C.

In turn, `CCCOc1ccccc1C(N)=S` showed a melting point of 100 to 102 °C.

Regarding `Nc1cccc(C(=O)N2CCCCC2)c1`, the melting point lay in the range of 121 to 123 °C.

Turning to `NC1CCC(=O)NC1=O` (stereo not drawn), the melting point was in the range of 214 to 216 °C.

For `Cc1ccc(C)c(S(=O)(=O)NN)c1`, the melting point was 75 to 77 °C. `Cn1nc(Br)c(=O)n(C)c1=O`: the melting point was 95 to 97 °C. In turn, `CC(C)NC(=O)c1ccc(Cl)cc1N` gave a melting point of 158 to 160 °C. Regarding `O=C(O)C(=O)c1ccc(F)c(F)c1`, the melting point lay in the range of 88 to 90 °C. For `Cn1cnnc1-c1ccccc1N`, the melting point lay within 133 to 135 °C. On to `Nc1nonc1C(=O)N1CCCC1`, for which the melting point lay in the range of 192 to 194 °C. The compound `CCOC(=O)/C(C#N)=C/Nc1ccc(Br)cc1` showed a melting point of 149 to 151 °C. Next, `CC(O)(CN)c1cccs1` (stereo not drawn): 55 to 57 °C. In turn, `O=c1[nH]c(CCl)nc2c1oc1ccccc12` had a melting point of 98 to 100 °C.

For `O=C(CCl)Nc1cccc(Cl)c1`, the melting point was 70 to 72 °C.

The compound `Nc1sccc1C(=O)NC1CC1` showed a melting point of 144 to 146 °C. On to `O=C1NCCNC1(O)C(F)(F)F` (stereo not drawn), for which the melting point lay within 144 to 146 °C. Take `Cn1cc(C(N)=O)cc1C(=O)O`: the melting point is 223 to 225 °C. As for `Nc1ccc(S(=O)C(F)F)cc1` (stereo not drawn), the figure is 83 to 85 °C; as for `Cc1ccc(-c2nnc(Cl)c3ccccc23)cc1C`, 241 to 243 °C. `Cc1cccc([N+](=O)[O-])c1C(=O)n1ccnc1` showed a melting point of 104 to 106 °C. Next, `Cc1cc(C(=O)C(C)Cl)c(C)n1-c1ccc(Cl)cc1` (stereo not drawn): 107 to 111 °C; `CC1(c2ccc(F)cc2)NC(=O)NC1=O` (stereo not drawn): 204 to 206 °C.

The compound `CCOc1ccc(N)c(C(F)(F)F)c1` showed a melting point of 69 to 71 °C. On to `O=C(O)c1ccc(CN2CCC(CO)CC2)cc1`, for which the melting point was 219 to 221 °C. As for `O=C(O)CCc1nc2cc(C(F)(F)F)ccc2n(Cc2ccccc2)c1=O`, the figure is 171 to 173 °C; as for `CC1(c2ccc(I)cc2)NC(=O)NC1=O` (stereo not drawn), 265 to 267 °C. `O=C(O)C1(c2ccc3c(c2)OCCO3)CCCC1` displayed a melting point of 165 to 167 °C. `COC(=O)c1coc(C(=O)CCl)c1` displayed a melting point of 97 to 99 °C.

With `COc1ccc(/C=C/C(=O)O)cc1S(=O)(=O)N(C)C`, the melting point lay within 229 to 231 °C. `O=C(O)c1cccc(C(F)(F)C(F)(F)F)c1` gave a melting point of 94 to 96 °C.

In turn, `Nc1ccc(-c2nc(C3CC3)n[nH]2)cc1` registered a melting point of 192 to 194 °C.
